Experimental data taken from PubChem BioAssay AID330 (DTP/NCI, 2004).
Several values for one entry are separate records, joined by “and”; a condition that tells them apart may be missing. Equal values may be shown once. Inconclusive results and toxic doses are left out. The calls were made as follows: active = survival T/C of 150% or more; inactive = T/C below 125% in these data.

Tested on: P388 leukemia ip, CD2F1 mice, survival T/C
Experiment: NCI In Vivo Anticancer Drug Screen. Data for tumor model P388 Leukemia (intraperitoneal) in CD2F1 (CDF1) mice
Conditions: endpoint: median survival time, higher = longer survival
Method in brief: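 Mice carrying the transplanted tumor received test compound or vehicle. Survival was recorded in each group, and the value is the treated-group measurement divided by that of the vehicle-treated control group.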

[1] = dose: 240.0 mg/kg/injection, schedule: Q01DX005 (ip), vehicle: saline with Tween-80
[2] = dose: 60.0 mg/kg/injection, schedule: Q01DX005 (ip), vehicle: saline with Tween-80
[3] = dose: 120.0 mg/kg/injection, schedule: Q01DX005 (ip), vehicle: saline with Tween-80
[4] = dose: 50.0 mg/kg/injection, schedule: Q01DX005 (ip), vehicle: saline with Tween-80
[5] = dose: 100.0 mg/kg/injection, schedule: Q01DX005 (ip), vehicle: saline with Tween-80
[6] = dose: 200.0 mg/kg/injection, schedule: Q01DX005 (ip), vehicle: saline with Tween-80
[7] = dose: 50.0 mg/kg/injection, schedule: Q01DX009 (ip), vehicle: saline with Tween-80
[8] = dose: 100.0 mg/kg/injection, schedule: Q01DX009 (ip), vehicle: saline with Tween-80
[9] = dose: 200.0 mg/kg/injection, schedule: Q01DX009 (ip), vehicle: saline with Tween-80
[10] = dose: 100.0 mg/kg/injection, schedule: Q04DX003 (ip), vehicle: saline with Tween-80
[11] = dose: 200.0 mg/kg/injection, schedule: Q04DX003 (ip), vehicle: saline with Tween-80
[12] = dose: 400.0 mg/kg/injection, schedule: Q04DX003 (ip), vehicle: saline with Tween-80
[13] = dose: 50.0 mg/kg/injection, schedule: Q01DX005 (ip), vehicle: Klucel (hydroxypropylcellulose) (HPC)
[14] = dose: 100.0 mg/kg/injection, schedule: Q01DX005 (ip), vehicle: Klucel (hydroxypropylcellulose) (HPC)
[15] = dose: 200.0 mg/kg/injection, schedule: Q01DX005 (ip), vehicle: Klucel (hydroxypropylcellulose) (HPC)
[16] = dose: 50.0 mg/kg/injection, schedule: Q04DX003 (ip), vehicle: saline with Tween-80

Measured: T/C

COc1cccc(/C=N\NC(=O)CNC(=O)Nc2ccc(Cl)c(Cl)c2)c1OC
inactive: dose: 15.0 mg/kg/injection, schedule: Q01DX005 (ip), vehicle: saline with Tween-80 91 % of control | dose: 30.0 mg/kg/injection, schedule: Q01DX005 (ip), vehicle: saline with Tween-80 88 % of control | [1] 95 % of control

CN1CCC(C(=O)NNc2ccccc2)CC1
inactive: dose: 50.0 mg/kg/injection, schedule: Q01DX005 (ip), vehicle: saline 100 % of control | dose: 100.0 mg/kg/injection, schedule: Q01DX005 (ip), vehicle: saline 102 % of control | dose: 200.0 mg/kg/injection, schedule: Q01DX005 (ip), vehicle: saline 102 % of control

CCOc1ccc(C(C[N+](=O)[O-])Sc2ccccc2N)cc1 (stereo not drawn)
inactive: [2] 97 % of control | [3] 106 % of control | [1] 113 % of control

COc1cccc(/C=C/c2ccnnc2)c1OC
inactive: dose: 50.0 mg/kg/injection, schedule: Q01DX009 (ip), vehicle: saline 104 % of control | dose: 100.0 mg/kg/injection, schedule: Q01DX009 (ip), vehicle: saline 108 % of control | dose: 200.0 mg/kg/injection, schedule: Q01DX009 (ip), vehicle: saline 100 % of control

CCOc1cc2c(cc1Cc1ccc(OC)cc1OC)OCO2
inactive: [2] 104 % of control and 107 % of control and 112 % of control | [3] 102 % of control and 107 % of control | [1] 111 % of control and 123 % of control | dose: 480.0 mg/kg/injection, schedule: Q01DX005 (ip), vehicle: saline with Tween-80 118 % of control

COC(=O)NCCn1c([N+](=O)[O-])cnc1C
inactive: dose: 100.0 mg/kg/injection, schedule: Q01DX001 (ip), vehicle: saline with Tween-80 99 % of control | dose: 200.0 mg/kg/injection, schedule: Q01DX001 (ip), vehicle: saline with Tween-80 98 % of control | dose: 400.0 mg/kg/injection, schedule: Q01DX001 (ip), vehicle: saline with Tween-80 106 % of control

CC1(C)OC(c2ccccc2)=Nc2ccccc21
inactive: dose: 100.0 mg/kg/injection, schedule: Q04DX002 (ip), vehicle: saline 104 % of control | dose: 200.0 mg/kg/injection, schedule: Q04DX002 (ip), vehicle: saline 103 % of control | dose: 400.0 mg/kg/injection, schedule: Q04DX002 (ip), vehicle: saline 99 % of control

COc1cc2c(cc1C(C)c1ccc(Cl)cc1)OCO2 (stereo not drawn)
inactive: [4] 99 % of control | [5] 108 % of control | [6] 101 % of control

CC(C)(C(=O)c1ccccc1)C(=O)c1ccccc1
inactive: [7] 95 % of control | [8] 100 % of control | [9] 95 % of control

CCCCOP(=O)(N1CC1(C)C)N1CC1(C)C (stereo not drawn)
inactive: dose: 2.0 mg/kg/injection, schedule: Q01DX009 (ip), vehicle: saline 104 % of control and 115 % of control and 96 % of control | dose: 4.0 mg/kg/injection, schedule: Q01DX009 (ip), vehicle: saline 115 % of control and 117 % of control and 98 % of control | dose: 8.0 mg/kg/injection, schedule: Q01DX009 (ip), vehicle: saline 108 % of control and 111 % of control | dose: 10.0 mg/kg/injection, schedule: Q01DX001 (ip), vehicle: saline 105 % of control and 111 % of control and 115 % of control | dose: 20.0 mg/kg/injection, schedule: Q01DX001 (ip), vehicle: saline 101 % of control and 102 % of control | dose: 40.0 mg/kg/injection, schedule: Q01DX001 (ip), vehicle: saline 105 % of control and 117 % of control

NNC(=O)Cc1cccc2ccc(Cl)cc12
inactive: dose: 60.0 mg/kg/injection, schedule: Q01DX005 (ip), vehicle: Klucel (hydroxypropylcellulose) (HPC) 92 % of control | dose: 120.0 mg/kg/injection, schedule: Q01DX005 (ip), vehicle: Klucel (hydroxypropylcellulose) (HPC) 88 % of control

CCCCCCCCCCCCOC(=O)OCCCCCCCCCCCC
inactive: [10] 100 % of control | [11] 100 % of control | [12] 100 % of control

CCOC(=O)C1=C(C)NC(=O)NC1c1ccc([N+](=O)[O-])s1 (stereo not drawn)
inactive: [13] 87 % of control | [14] 97 % of control | [15] 91 % of control

N#Cc1ccc(NN=NCCCCl)cc1
inactive: dose: 25.0 mg/kg/injection, schedule: Q01DX005 (ip), vehicle: distilled water + Tween-80 95 % of control | dose: 25.0 mg/kg/injection, schedule: Q01DX005 (ip), vehicle: saline with Tween-80 100 % of control | dose: 50.0 mg/kg/injection, schedule: Q01DX005 (ip), vehicle: distilled water + Tween-80 93 % of control | [4] 100 % of control | dose: 100.0 mg/kg/injection, schedule: Q01DX005 (ip), vehicle: distilled water + Tween-80 95 % of control | [5] 121 % of control

CC(CC(=O)c1cccc([N+](=O)[O-])c1)=NCC(C)N=C(C)CC(=O)c1cccc([N+](=O)[O-])c1 (stereo not drawn)
inactive: [10] 98 % of control | [11] 101 % of control | [12] 106 % of control

COc1ccc(NC(N)=S)cc1OC
inactive: [16] 95 % of control | [10] 88 % of control | [11] 88 % of control

Cc1ccccc1N=c1c2cnn(C)c2ncn1-c1ccccc1C
inactive: [13] 96 % of control | [14] 96 % of control | [15] 93 % of control

COc1ccc(-c2cc(C(=O)Nc3cc(Cl)cc(Cl)c3)c3ccccc3n2)cc1
inactive: [4] 91 % of control | [5] 93 % of control | [6] 91 % of control

Cc1ccc(S(=O)(=O)CC(=O)CC(=O)C(N)=O)cc1
inactive: [2] 109 % of control | [3] 108 % of control | [1] 104 % of control

CCn1c2nc(=O)n(C)c(=O)c-2cc2ccccc21
inactive: [7] 111 % of control | [8] 111 % of control | [9] 116 % of control

O=c1oc2ccccc2cc1-n1nnc2ccccc21
inactive: [2] 98 % of control | [3] 90 % of control | [1] 90 % of control

C/C1=C2N=C(/C=C3N=C(/C(C)=C4\[N-]C(C(CC(N)=O)C4(C)CCC(=O)NCC(C)OP(=O)(O)OC4C(CO)OC(n5cnc6cc(C)c(C)cc65)C4O)C4(C)N=C1C(CCC(N)=O)C4(C)CC(N)=O)C(CCC(N)=O)C\3(C)C)C(CCC(N)=O)C/2(C)CC(N)=O.[CH2-]C1OC(n2cnc3c(N)ncnc32)C(O)C1O.[Co+2] (stereo not drawn)
inactive: dose: 8.8 micrograms/kg/injection, schedule: Q#A X Z (ip), vehicle: water 90 % of control | dose: 88.3 micrograms/kg/injection, schedule: Q#A X Z (ip), vehicle: water 97 % of control | dose: 8830.0 micrograms/kg/injection, schedule: Q#A X Z (ip), vehicle: water 89 % of control

COC1(OC)C2(Cl)C(Cl)=C(Cl)C1(Cl)C1CCCCC12 (stereo not drawn)
inactive: [2] 101 % of control | [3] 102 % of control | [1] 104 % of control

C=CCCn1nnc(-c2ccccc2)n1
inactive: dose: 25.0 mg/kg/injection, schedule: Q04DX003 (ip), vehicle: saline with Tween-80 102 % of control | [16] 96 % of control | [10] 100 % of control | [11] 104 % of control and 105 % of control | [12] 94 % of control

CC1C=CCC(C)(C#N)C1 (stereo not drawn)
inactive: dose: 50.0 mg/kg/injection, schedule: Q01DX009 (ip), vehicle: Klucel (hydroxypropylcellulose) (HPC) 103 % of control | dose: 100.0 mg/kg/injection, schedule: Q01DX009 (ip), vehicle: Klucel (hydroxypropylcellulose) (HPC) 100 % of control | dose: 200.0 mg/kg/injection, schedule: Q01DX009 (ip), vehicle: Klucel (hydroxypropylcellulose) (HPC) 108 % of control
